≈ marks a conversion by molar mass, not a printed value.
Tests used:
[1] = target: T1, purified recombinant human Aggrecanase-2 (Ag2t-Phe628-Strep) (Homo sapiens, UniProt Q9UNA0); test: In vitro fluorescence screen for Aggrecanase-2 inhibitors; assay type: biochemical; conditions: Table 1; read-out: Agg 2 IC50
T1 construct: the form used is denoted as Ag2t-Phe628-Strep (MW=41,737)
T1 sequence (Q9UNA0 262-628): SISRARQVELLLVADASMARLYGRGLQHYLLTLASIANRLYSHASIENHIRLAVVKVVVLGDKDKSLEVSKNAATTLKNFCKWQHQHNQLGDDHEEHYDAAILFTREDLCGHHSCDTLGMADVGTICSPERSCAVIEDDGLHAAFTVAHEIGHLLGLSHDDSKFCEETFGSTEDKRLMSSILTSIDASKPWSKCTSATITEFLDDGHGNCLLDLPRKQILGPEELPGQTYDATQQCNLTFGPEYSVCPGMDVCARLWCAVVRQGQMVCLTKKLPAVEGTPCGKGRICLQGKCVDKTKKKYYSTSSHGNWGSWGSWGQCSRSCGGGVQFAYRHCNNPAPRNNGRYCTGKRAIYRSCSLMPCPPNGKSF

[2] = target: T2, purified recombinant human Aggrecanase-1 (rAgg1) (Homo sapiens, UniProt O75173); test: In vitro fluorescence screen for Aggrecanase-1 inhibitors; assay type: biochemical; conditions: Table 1
T2 sequence (O75173 213-837): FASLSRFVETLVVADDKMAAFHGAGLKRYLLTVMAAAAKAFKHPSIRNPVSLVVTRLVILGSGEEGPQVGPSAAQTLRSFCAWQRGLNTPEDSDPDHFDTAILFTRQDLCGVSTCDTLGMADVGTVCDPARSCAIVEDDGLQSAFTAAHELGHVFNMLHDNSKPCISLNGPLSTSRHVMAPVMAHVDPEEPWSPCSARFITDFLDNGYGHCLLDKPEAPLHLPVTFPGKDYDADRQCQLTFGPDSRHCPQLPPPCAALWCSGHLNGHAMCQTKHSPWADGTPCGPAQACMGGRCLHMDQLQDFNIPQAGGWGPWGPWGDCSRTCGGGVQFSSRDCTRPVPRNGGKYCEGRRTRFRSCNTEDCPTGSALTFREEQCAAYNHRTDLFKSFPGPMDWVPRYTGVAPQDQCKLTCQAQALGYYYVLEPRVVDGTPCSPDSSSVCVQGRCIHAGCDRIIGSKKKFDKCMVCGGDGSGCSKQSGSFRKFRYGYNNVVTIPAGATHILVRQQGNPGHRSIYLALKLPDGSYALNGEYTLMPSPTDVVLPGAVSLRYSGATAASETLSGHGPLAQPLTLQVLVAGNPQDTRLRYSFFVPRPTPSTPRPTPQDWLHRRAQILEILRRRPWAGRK

MMP-1 = target: T3, MMP-1 (Homo sapiens, UniProt P03956); test: MMP-1 of Table 1; assay type: biochemical; conditions: unit inferred
T3 sequence (P03956 100-469): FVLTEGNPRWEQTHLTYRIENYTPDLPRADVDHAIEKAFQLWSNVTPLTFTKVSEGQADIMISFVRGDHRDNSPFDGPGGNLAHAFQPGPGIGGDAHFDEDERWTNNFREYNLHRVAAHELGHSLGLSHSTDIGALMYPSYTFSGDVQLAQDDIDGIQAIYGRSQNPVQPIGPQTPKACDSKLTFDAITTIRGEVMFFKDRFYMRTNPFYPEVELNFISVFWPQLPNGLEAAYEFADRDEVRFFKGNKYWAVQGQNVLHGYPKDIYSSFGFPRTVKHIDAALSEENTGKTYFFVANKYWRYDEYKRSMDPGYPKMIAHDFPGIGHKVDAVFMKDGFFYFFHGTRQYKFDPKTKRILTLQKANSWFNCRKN

[3] = system: Aggrecanase-mediated aggrecan cleavage in human OA cartilage explants; test: Human osteoarthritic cartilage explant efficacy study (BC3 western analysis); assay type: cell-based
Text: Human OA Cartilage Explant Culture: Discarded tissues from consented knee replacement patients were obtained from New England Baptist Hospital (Brookline, Mass.) in sterile phosphate buffered saline (PBS) after about 2-4 hrs post surgery. Cartilage slices were harvested from the knee specimens and washed several times in PBS. These cartilage slices were cut into appropriate pieces (6-8 mm) and rinsed in PBS and then in media and further cultured for additional days as cartilage explants. The medium consisted of Dulbecco's Modified Eagle's medium (DMEM, JRH Biosciences, Lenexa, Kans.), 50 μg/ml ascorbic acid (Wako, Osaka, Japan), 10 mM HEPES, pH 7.0 (Mediatech, Herndon, Va.), 2 mM L-glutamine (Mediatech), 100 U/ml antibiotic-antimycotic solution (Mediatech).
Test compounds: The test compounds are described in Examples 8OO, 8NNNNNNN, and 8WWWWWWW. Stock solutions of the compounds were prepared at 1 mg/ml in DMSO, aliquoted and stored at −20° C. Working solutions of the compounds were made in DMSO and added to the culture for efficacy studies.
Efficacy study: Cartilage explants were cultured for 2-3 days in DMEM medium in a 37° C. and 5% CO2 environment to equilibrate the tissue. Explants were weighed (˜250 mg) and placed in wells of a 24-well culture dish in 1 ml of medium and 3 replicates per treatment group. For the efficacy study, cartilage explants were cultured for 6 days in the presence or absence of various concentrations of the test compound. The media was replaced on day 3 and the experiment was terminated on day 6. Total aggrecan content of conditioned media was measured by a colorimetric assay with DMMB (Farndale, R W et al., Biochim Biophys Acta. 1986, 883, 173-177).
Western analysis: Aggrecan fragments in conditioned medium were analyzed by western analysis using neoepitope antibody, BC-3 designed to recognize the Aggrecanase-generated N-terminal interglobular neoepitope ^374ARGS. Equal cartilage weight equivalent conditioned media from each replicate well per treatment group was pooled and digested with Chondroitinase ABC (Sigma, St Louis, Mo.), Keratinase I (Seikagaku America, Falmouth, Mass.) and Keratinase II (Seikagaku America, Falmouth, Mass.) for 2 h at 37° C. Samples were concentrated by YM-10 centrifugal filter device (Millipore Corp., Bedford, Mass.), lyophilized and reconstituted with equal volume of water. Samples were separated under reducing conditions on 4-12% gradient Tris-glycine gels (Invitrogen, Carlsbad, Calif.). Proteins from the gels were transferred to nitrocellulose membranes. Immunoblots were probed using Mab BC-3 (Abcam, Cambridge, Mass.). Incubation with primary and alkaline-phosphatase-conjugated secondary goat anti-mouse IgG (Promega Corp., Madison, Wis.) was performed overnight at 4° C. and at room temperature for 1 h, respectively. The immunoblots were incubated with NBT/BCIP substrate (Promega Corp., Madison, Wis.) at room temperature to achieve optimum color development. The aggrecan fragments containing the ARGS neoepitope were quantitated by densitometry analysis and the percentage inhibition of aggrecan degradation by test compounds was determined.

IC50 [1]: 0.044 µM
Ki ([2]; enzyme not given, column follows Agg1 IC50, read-out: Ki): 0.006 µM
IC50 ([2]; read-out: Agg1 IC50): < 0.03 µM
IC50 (MMP-1): > 200 µM
SMILES: CC(C)(Cc1ccc(F)cc1)NC(=O)[C@H](CCC(=O)O)NC(=O)c1ccc(-c2ccccc2)cc1 [Example 8OO, N^2-(1,1′-biphenyl-4-ylcarbonyl)-N^1-[2-(4-fluorophenyl)-1,1-dimethylethyl]-L-α-glutamine]
EC50 ([3]; 144 h, human OA cartilage explants, 6 days, BC3 analysis, read-out: EC50 (inhibition of aggrecanase generated aggrecan fragments)): ~0.15 µg/mL (≈ 0.315 µM)
inhibition at 0.02 µg/mL ([3]; Homo sapiens, 0.02 ug/ml, average of 15 donors, read-out: % inhibition (BC3 analysis)): 8.52%
inhibition at 0.04 µg/mL ([3]; Homo sapiens, 0.04 ug/ml, average of 15 donors, read-out: % inhibition (BC3 analysis)): 26.2%
inhibition at 0.08 µg/mL ([3]; Homo sapiens, 0.08 ug/ml, average of 15 donors, read-out: % inhibition (BC3 analysis)): 42.9%
inhibition at 0.15 µg/mL ([3]; Homo sapiens, 0.15 ug/ml, average of 15 donors, read-out: % inhibition (BC3 analysis)): 49%
inhibition at 0.3 µg/mL ([3]; Homo sapiens, 0.3 ug/ml, average of 15 donors, read-out: % inhibition (BC3 analysis)): 56.4%
inhibition at 0.6 µg/mL ([3]; Homo sapiens, 0.6 ug/ml, average of 15 donors, read-out: % inhibition (BC3 analysis)): 73.9%
inhibition at 1.25 µg/mL ([3]; Homo sapiens, 1.25 ug/ml, average of 15 donors, read-out: % inhibition (BC3 analysis)): 83.4%
inhibition at 2.5 µg/mL ([3]; Homo sapiens, 2.5 ug/ml, average of 15 donors): 101%
inhibition at 5 µg/mL ([3]; Homo sapiens, 5 ug/ml, average of 15 donors): 98.9%
inhibition at 10 µg/mL ([3]; Homo sapiens, 10 ug/ml, average of 15 donors): 102%
